The results in this text go back to publication PMC9841589, “Identification of 2-Aminoacyl-1,3,4-thiadiazoles as Prostaglandin E2 and Leukotriene Biosynthesis Inhibitors” (ACS Medicinal Chemistry Letters, 2022).

Test [1] deals with T1, Human recombinant sEH (Homo sapiens, UniProt P34913).
T1 construct: made in house; host or cells: Sf9 cells infected with a baculovirus provided by Dr. B. Hammock
T1 sequence (P34913 1-555): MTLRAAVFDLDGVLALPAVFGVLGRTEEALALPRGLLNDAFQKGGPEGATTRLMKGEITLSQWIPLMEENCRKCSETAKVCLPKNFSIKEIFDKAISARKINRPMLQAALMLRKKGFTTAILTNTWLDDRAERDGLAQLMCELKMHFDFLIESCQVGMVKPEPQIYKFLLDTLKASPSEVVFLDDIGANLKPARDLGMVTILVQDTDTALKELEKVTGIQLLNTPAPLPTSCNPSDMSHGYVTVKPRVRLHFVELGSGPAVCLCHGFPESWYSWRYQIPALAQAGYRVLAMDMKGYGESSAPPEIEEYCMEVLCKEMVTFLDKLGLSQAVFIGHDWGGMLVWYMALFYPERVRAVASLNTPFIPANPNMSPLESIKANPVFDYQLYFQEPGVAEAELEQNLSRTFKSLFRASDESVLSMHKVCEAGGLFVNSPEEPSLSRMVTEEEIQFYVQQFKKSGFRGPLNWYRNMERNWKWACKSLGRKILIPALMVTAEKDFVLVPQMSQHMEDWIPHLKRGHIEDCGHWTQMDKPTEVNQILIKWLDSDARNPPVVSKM
Put plainly: Activity assay of human recombinant sEH. The class given is biochemical. Particulars: percentage of uninhibited control (100%), n = 3, n.i.: no inhibitory activity observed, read-out: sEH residual activity (%). Here is the method:
8) plus 5 mM glutathione, 100 µM EDTA and 5 µM hemoglobin) to a final concentration of 50 U/mL for COX-1 and 20 U/mL for COX-2, and pre-incubated with test compounds 3, 6, 7, and 9 (10 µM) or vehicle (0.1% DMSO) over 5 min at rt. After 1 min at 37 °C, reactions were started after addition of arachidonic acid to a final concentration of 5 µM for COX-1 and 2 µM for COX-2. After 5 min at 37 °C, 1 mL of ice-cold methanol was added for stopping the reactions on ice. Then, PGB 1 as internal standard and 530 µl PBS plus HCl were added, and solid-phase extraction was performed as reported before.4-6, 17-19 COXs product formation (12-HHT) was determined using RP-HPLC. 4-6, 17-19 Indomethacin (10 µM) and celecoxib (5 µM) were used as reference drugs.
Expression, purification and activity assay of human recombinant sEH
Human recombinant sEH was expressed in Sf9 cells and was infected using a baculovirus, provided by Dr. B. Hammock, University of California, Davis, CA. After 72 hours, cells were pelleted and sonicated (3 × 10 sec) at 4 °C in lysis buffer (50 mM NaHPO 4, pH = 8, 300 mM NaCl, 10% glycerol, 1 mM EDTA, 1 mM phenylmethanesulfonyl fluoride, 10 µg/mL of leupeptin, and 60 µg/mL of soybean trypsin inhibitor). Lysates were centrifuged over 60 min at 4 °C (100,000 × g), and supernatants were collected and submitted to a benzylthio-sepharose-affinity chromatography for sEH purification by elution with 4-fluorochalcone oxide in PBS plus 1 mM DTT and 1 mM EDTA.720 Bio-Rad protein detection kit (Bio-Rad Laboratories, Munich, Germany) was used for total protein on dialyzed and concentrated (Millipore Amicon-Ultra-15 centrifugal filter) enzyme solution and a fluorescence-based assay was used to define the epoxide hydrolase activity. 5,618, 19 Then, sEH was diluted in Tris buffer (25 mM, pH = 7) supplemented with 0.1 mg/mL of BSA to an appropriate enzyme concentration and pre-incubated with test compounds 3, 6, 7, 9 (10 µM) or vehicle (0.1% DMSO) for 15 min at rt. 50 µM 3-phenyl-cyano(6-methoxy-2-naphthalenyl)methyl ester-2-oxiraneacetic acid (PHOME), a non-fluorescent compound, was added for starting the reaction.
PHOME is enzymatically converted into a fluorescent compound, 6-methoxy-naphtaldehyde, detectable by using a spectrofluorometer setting λ em = 465 nm, λ ex = 330 nm. After 60 min, ZnSO 4 […]
(200 mM) was added for stopping the reaction, and then fluorescence was detected. AUDA (12-(3-adamantan-1-yl-ureido)-dodecanoic acid) (100 nM) was used as reference drug.
Human neutrophils and monocytes were freshly isolated from leukocyte concentrates obtained from the Institute of Transfusion Medicine, University Hospital Jena. […]

The test system of test [2] is LPS-stimulated J774A.1 macrophages. Put plainly: Determination of IL-6 and PGE2 in murine macrophages. To be noted: J774A.1, LPS 10 μg/mL, compound 1 μM, 24 h. The class given is cell-based, mouse.
Procedure: LOX product analysis, using an MRM method with diagnostic ion fragments and identification, was performed as described previously.922 Determination of IL-6 and PGE2 in murine macrophages Mouse macrophage cell line (J774A.1, ATCC® TIB-67™) was cultured in DMEM supplemented with FBS (ATCC® 30-2020™) to a final concentration of 10%. Cells were seeded in petri culture (100 × 20 mm, Falcon ®) at a density of 5 × 10^5 cells per dish and allowed to grow for dishes 24 h. The medium was then replaced, and cells were treated with LPS (10 ) in the presence or absence of μg/ml compounds 3, 6, 7, 9 (1 µM). Following incubations of 24 h, cells were collected with a cell scraper and, after centrifugation at 14000 × g for 10 min at 4 °C, the supernatant was collected and stored at −80°C for ELISA analysis 1023.

Structures are written as SMILES.

As to `Cc1cc(C(=O)Nc2nnc(-c3ccc(-c4ccccc4N)cc3)s2)cc(Cl)n1` [compound 6], the remaining activity at 10 µM in test [1] was found to be 67.7%.

In the case of `O=C(Nc1nnc(-c2ccc(-c3cccc(O)c3)cc2)s1)c1ccccc1Br` [compound 3], the remaining activity at 10 µM in test [1] was 96%. Further, in test [2], the IL-6 production entry is recorded as “able to modulate” and the PGE2 production result was “able to modulate”.

As to `Nc1ccccc1-c1ccc(-c2nnc(NC(=O)c3c(Cl)ccnc3Cl)s2)cc1` [compound 9], the remaining activity at 10 µM in test [1] is 83.9%.

Take `Nc1ccccc1-c1ccc(-c2nnc(NC(=O)c3ccccc3Br)s2)cc1` [compound 7]: in test [1], the remaining activity at 10 µM came to 164%. For the same compound, the PGE2 production result in test [2] is listed as “displayed a similar activity only in terms of PGE2 modulation”.
